Measured values: patent US9302999B2, “Substituted triazoles as herbicides” (E. I. DU PONT DE NEMOURS AND COMPANY, priority 2012, dated 2016)

Columns and labels:
Type in all cases: in vivo
[1] = test system: pigweed (Amaranthus retroflexus); experiment: Test A pre-/postemergence: pigweed; settings: for Pigweed plant response rating: visual rating on 0 to 100 scale (0 no effect, 100 complete control), approximately ten days
How it was run: (§1)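 Visual 0–100 injury ratings (0 no effect, 100 complete control) taken about ten days after treatment, relative to untreated controls. Preemergence treatment was a directed soil spray; postemergence plants were 2–10 cm tall at one- to two-leaf stage. Soil: loam/sand blend.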

[2] = test system: lambsquarters (Chenopodium album); experiment: Test C pre-/postemergence: lambsquarters
How it was run: (§2)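 Visual injury scored 0–100 (100 = complete control) against untreated controls after 13–15 greenhouse days. Surfactant-containing solvent formulations applied either to soil after sowing (loam/sand) or over 1- to 4-leaf plants, 2–18 cm tall.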

[3] = test system: corn (Zea mays); experiment: Test C pre-/postemergence: corn
How it was run: as §2

[4] = test system: barnyardgrass (Echinochloa crus-galli); experiment: Test A pre-/postemergence: barnyardgrass
How it was run: as §1

[5] = test system: large crabgrass (Digitaria sanguinalis); experiment: Test C pre-/postemergence: large crabgrass
How it was run: as §2

[6] = test system: blackgrass (Alopecurus myosuroides); experiment: Test C pre-/postemergence: blackgrass
How it was run: as §2

[7] = test system: foxtail, giant (giant foxtail, Setaria faberii); experiment: Test C pre-/postemergence: foxtail, giant
How it was run: as §2

[8] = test system: wheat (Triticum aestivum); experiment: Test A pre-/postemergence: wheat; settings: for Wheat plant response rating: visual rating on 0 to 100 scale (0 no effect, 100 complete control), approximately ten days
How it was run: as §1

[9] = test system: crabgrass, large (large crabgrass, Digitaria sanguinalis); experiment: Test A pre-/postemergence: crabgrass, large
How it was run: as §1

[10] = test system: morningglory (Ipomoea coccinea); experiment: Test C pre-/postemergence: morningglory
How it was run: as §2

[11] = test system: nutsedge, yellow (yellow nutsedge, Cyperus esculentus); experiment: Test C pre-/postemergence: nutsedge, yellow
How it was run: as §2

[12] = Postemergence, 125 g ai/ha, 0 to 100 scale, 0 is no effect, 100 is complete control
[13] = Preemergence, 125 g ai/ha, 0 to 100 scale where 0 is no effect and 100 is complete control
[14] = Preemergence, 500 g ai/ha, 0 to 100 scale (0 no effect, 100 complete control)
[15] = Postemergence, 31 g ai/ha, scale 0 to 100 (0 no effect, 100 complete control)
[16] = Postemergence, 62 g ai/ha, scale 0 to 100 (0 no effect, 100 complete control)
[17] = Postemergence, 125 g ai/ha, scale 0 to 100, 0 no effect, 100 complete control
[18] = Postemergence, 250 g ai/ha, scale 0 to 100
[19] = Preemergence, 31 g ai/ha, scale of 0 to 100, 0 is no effect, 100 is complete control
[20] = Preemergence, 62 g ai/ha, scale of 0 to 100, 0 is no effect, 100 is complete control
[21] = Preemergence, 125 g ai/ha, scale 0 to 100, 0 no effect, 100 complete control
[22] = Preemergence, 250 g ai/ha, scale 0 to 100, 0 no effect, 100 complete control
[23] = Postemergence, 500 g ai/ha, visual rating on 0 to 100 scale (0 no effect, 100 complete control), approximately ten days

CCc1nn(-c2ccc(C(F)(F)F)cc2)nc1Cc1ccnc(C(F)(F)F)c1 [Compound 155]
Plant response rating, Pigweed [1, 12]: 100
Pigweed plant response rating ([1]; Postemergence, 500 g ai/ha): 100
Plant response rating, Pigweed [1, 13]: 100
Plant response rating, Pigweed [1, 14]: 100
Plant response rating, Lambsquarters [2, 15]: 80
Plant response rating, Lambsquarters [2, 16]: 95
Plant response rating, Lambsquarters [2, 17]: 98
Plant response rating, Lambsquarters [2, 18]: 98
Plant response rating, Lambsquarters [2, 19]: 90
Plant response rating, Lambsquarters [2, 20]: 100
Plant response rating, Lambsquarters [2, 21]: 100
Plant response rating, Lambsquarters [2, 22]: 100
Plant response rating, Corn [3, 15]: 25
Plant response rating, Corn [3, 16]: 25
Plant response rating, Corn [3, 17]: 45
Plant response rating, Corn [3, 18]: 45
Plant response rating, Corn [3, 19]: 5
Plant response rating, Corn [3, 20]: 5
Plant response rating, Corn [3, 21]: 10
Plant response rating, Corn [3, 22]: 45
Plant response rating, Barnyardgrass [4, 12]: 90
Barnyardgrass plant response rating [4, 23]: 90
Plant response rating, Barnyardgrass [4, 13]: 100
Plant response rating, Barnyardgrass [4, 14]: 100
Plant response rating, Crabgrass, Large [5, 15]: 20
Plant response rating, Crabgrass, Large [5, 16]: 45
Plant response rating, Crabgrass, Large [5, 17]: 75
Plant response rating, Crabgrass, Large [5, 18]: 85
Plant response rating, Crabgrass, Large [5, 19]: 100
Plant response rating, Crabgrass, Large [5, 20]: 100
Plant response rating, Crabgrass, Large [5, 21]: 100
Plant response rating, Crabgrass, Large [5, 22]: 100
Plant response rating, Blackgrass [6, 15]: 40
Plant response rating, Blackgrass [6, 16]: 70
Plant response rating, Blackgrass [6, 17]: 85
Plant response rating, Blackgrass [6, 18]: 90
Plant response rating, Blackgrass [6, 19]: 90
Plant response rating, Blackgrass [6, 20]: 90
Plant response rating, Blackgrass [6, 21]: 90
Plant response rating, Blackgrass [6, 22]: 90
Plant response rating, Foxtail, Giant [7, 15]: 15
Plant response rating, Foxtail, Giant [7, 16]: 45
Plant response rating, Foxtail, Giant [7, 17]: 75
Plant response rating, Foxtail, Giant [7, 18]: 100
Plant response rating, Foxtail, Giant [7, 19]: 100
Plant response rating, Foxtail, Giant [7, 20]: 100
Plant response rating, Foxtail, Giant [7, 21]: 100
Plant response rating, Foxtail, Giant [7, 22]: 100
Plant response rating, Wheat [8, 12]: 40
Wheat plant response rating ([8]; Postemergence, 500 g ai/ha): 80
Plant response rating, Wheat [8, 13]: 10
Plant response rating, Wheat [8, 14]: 70
Plant response rating, Crabgrass, Large [9, 12]: 100
Crabgrass, Large plant response rating [9, 23]: 100
Plant response rating, Crabgrass, Large [9, 13]: 100
Plant response rating, Crabgrass, Large [9, 14]: 100
Plant response rating, Morningglory [10, 15]: 55
Plant response rating, Morningglory [10, 16]: 65
Plant response rating, Morningglory [10, 17]: 65
Plant response rating, Morningglory [10, 18]: 98
Plant response rating, Morningglory [10, 19]: 10
Plant response rating, Morningglory [10, 20]: 40
Plant response rating, Morningglory [10, 21]: 60
Plant response rating, Morningglory [10, 22]: 90
Plant response rating, Nutsedge, Yellow [11, 15]: 5
Plant response rating, Nutsedge, Yellow [11, 16]: 10
Plant response rating, Nutsedge, Yellow [11, 17]: 10
Plant response rating, Nutsedge, Yellow [11, 18]: 20
Plant response rating, Nutsedge, Yellow [11, 19]: 0

COc1nn(-c2ccc(C(F)(F)F)cc2)nc1Cc1ccnc(C(F)F)c1 [Compound 138]
Plant response rating, Pigweed [1, 12]: 100
Pigweed plant response rating ([1]; Postemergence, 500 g ai/ha): 100
Plant response rating, Pigweed [1, 13]: 100
Plant response rating, Pigweed [1, 14]: 100
Plant response rating, Lambsquarters [2, 15]: 100
Plant response rating, Lambsquarters [2, 16]: 100
Plant response rating, Lambsquarters [2, 17]: 100
Plant response rating, Lambsquarters [2, 18]: 100
Plant response rating, Lambsquarters [2, 19]: 95
Plant response rating, Lambsquarters [2, 20]: 98
Plant response rating, Lambsquarters [2, 21]: 98
Plant response rating, Lambsquarters [2, 22]: 98
Plant response rating, Corn [3, 19]: 20
Plant response rating, Corn [3, 20]: 30
Plant response rating, Corn [3, 21]: 40
Plant response rating, Corn [3, 22]: 55
Barnyardgrass plant response rating [4, 12]: 90
Barnyardgrass plant response rating [4, 23]: 90
Plant response rating, Barnyardgrass [4, 13]: 90
Plant response rating, Barnyardgrass [4, 14]: 100
Plant response rating, Crabgrass, Large [5, 15]: 45
Plant response rating, Crabgrass, Large [5, 16]: 50
Plant response rating, Crabgrass, Large [5, 17]: 55
Plant response rating, Crabgrass, Large [5, 18]: 95
Plant response rating, Crabgrass, Large [5, 19]: 98
Plant response rating, Crabgrass, Large [5, 20]: 100
Plant response rating, Crabgrass, Large [5, 21]: 100
Plant response rating, Crabgrass, Large [5, 22]: 100
Plant response rating, Blackgrass [6, 15]: 20
Plant response rating, Blackgrass [6, 16]: 40
Plant response rating, Blackgrass [6, 17]: 40
Plant response rating, Blackgrass [6, 18]: 45
Plant response rating, Blackgrass [6, 19]: 90
Plant response rating, Blackgrass [6, 20]: 95
Plant response rating, Blackgrass [6, 21]: 95
Plant response rating, Blackgrass [6, 22]: 95
Plant response rating, Foxtail, Giant [7, 15]: 20
Plant response rating, Foxtail, Giant [7, 16]: 55
Plant response rating, Foxtail, Giant [7, 17]: 55
Plant response rating, Foxtail, Giant [7, 18]: 95
Plant response rating, Foxtail, Giant [7, 19]: 98
Plant response rating, Foxtail, Giant [7, 20]: 100
Plant response rating, Foxtail, Giant [7, 21]: 100
Plant response rating, Foxtail, Giant [7, 22]: 100
Plant response rating, Wheat [8, 12]: 50
Wheat plant response rating ([8]; Postemergence, 500 g ai/ha): 60
Plant response rating, Wheat [8, 13]: 30
Plant response rating, Wheat [8, 14]: 60
Crabgrass, Large plant response rating [9, 12]: 90
Crabgrass, Large plant response rating [9, 23]: 90
Plant response rating, Crabgrass, Large [9, 13]: 90
Plant response rating, Crabgrass, Large [9, 14]: 90
Plant response rating, Morningglory [10, 15]: 90
Plant response rating, Morningglory [10, 16]: 90
Plant response rating, Morningglory [10, 17]: 98
Plant response rating, Morningglory [10, 18]: 98
Plant response rating, Morningglory [10, 19]: 15
Plant response rating, Morningglory [10, 20]: 55
Plant response rating, Morningglory [10, 21]: 65
Plant response rating, Morningglory [10, 22]: 98
Plant response rating, Nutsedge, Yellow [11, 15]: 10
Plant response rating, Nutsedge, Yellow [11, 16]: 10
Plant response rating, Nutsedge, Yellow [11, 17]: 15
Plant response rating, Nutsedge, Yellow [11, 18]: 20
Plant response rating, Nutsedge, Yellow [11, 19]: 5
Plant response rating, Nutsedge, Yellow [11, 21]: 5
Plant response rating, Nutsedge, Yellow [11, 22]: 5
